Columns and labels:
CYP2D6 = target: T1, CYP2D6 (Homo sapiens, UniProt P10635); assay: CYP inhibition test (CYP2D6); assay type: in vitro ADME; conditions: pooled human liver microsomes; dextromethorphan O-demethylation
T1 construct: The commercially available pooled human liver microsomes are used as an enzyme resource; from tissue; host or cells: pooled human liver microsomes
Summary of the method: (§1)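 Metabolite formation was quantified by LC/MS/MS: dextrorphan (2D6, 5 μmol/L dextromethorphan), terfenadine alcohol (3A4, 1 μmol/L terfenadine), 4′-hydroxymephenytoin (2C19, 50 μmol/L S-mephenytoin) and hydroxytolbutamide (2C9, 100 μmol/L tolbutamide). Reactions used NADPH-started pooled human liver microsomes (0.2 mg/mL) at 37 °C with compound at 1–20 μmol/L (four points). IC50 was calculated by logistic model relative to the DMSO control.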

[1] = tested on: Aβ production in neuroblastoma SH-SY5Y cells (SH/APPwt); assay: β-amyloid (Aβ) production inhibitory effect in cell: 96-well; assay type: cell-based; conditions: Homo sapiens, Assay format 96-well
Method: Neuroblastoma SH-SY5V cells (SH/APPwt) with human wild-type R-APP excessively expressed therein were prepared at 8×10^5 cells/mL, and 150 μl portions thereof were inoculated into each well of a 96-well culture plate (Falcon). The cells were cultured for 2 hours at […]. in a 5% gaseous carbon dioxide incubator. […] Namely, the final DMSO concentration was 1%, and the amount of the cell culture was 200 μl. After the incubation was performed for 24 hours from the addition of the test compound, 100 μl of the culture supernatant was collected from each fraction. The amount of the Aβ in each fraction was measured. The Aβ amount was measured as follows. 10 μl of a homogeneous time resolved fluorescence (HTRF) measurement reagent (Amyloid β1-40 peptide: CIS bio international) and 10 μof the culture supernatant were put into a 384-well half area microplate (black microplate, Costar) and mixed with each other, and then left standing overnight at 4° C. while the light was shielded.

CYP2C9 = target: T2, CYP2C9 (Homo sapiens, UniProt P11712); assay: CYP inhibition test (CYP2C9); assay type: in vitro ADME; conditions: pooled human liver microsomes; tolbutamide methyl-hydroxylation
T2 construct: The commercially available pooled human liver microsomes are used as an enzyme resource; from tissue; host or cells: pooled human liver microsomes
Summary of the method: as §1

Recombinant human BACE1 [2] = target: T3, Recombinant human BACE1 (Homo sapiens, UniProt P56817); assay: Assay of BACE1 inhibitory activity: 96-well; assay type: biochemical; conditions: Assay format 96-well
T3 construct: purchased R&D Systems
Method: 48.5 μL of substrate peptide solution (Biotin-XSEVNLDAEFRHDSGC-Eu: X=ε-amino-n-capronic acid. Eu=Europium cryplate) was added to each well of 96-hole half-area plate (a black plate: Costar), and after addition of 0.5 μl of the compound of the present invention (DMSO solution) and 1 μl of Recombinant human BACE1(R&D Systems), the reaction mixture was incubated at 30° C. for 3.5 hours. The substrate peptide was synthesized by reacting Cryptate TBPCOOH mono SMP (CIS bio international) with Biotin-XSEVNLDAEFRHDSGC (Peptide Institute, Inc.).
After the incubation for reaction, 50 μl of 8.0 μg/ml Streptavidin-XL665 (CIS bio international) dissolved in phosphate buffer (150 mmol/L […]—KH2PO4, pH 7.0, 0.008% Triton X-100, 0.8 mol/L KF) was added to each well and left stand at 30° C. for 45 minutes.

[3] = tested on: Aβ production in neuroblastoma SH-SY5Y cells (SH/APPwt); assay: β-amyloid (Aβ) production inhibitory effect in cell: 384-well; assay type: cell-based; conditions: Homo sapiens, Assay format 384-well
Summary of the method: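 SH-SY5Y cells overexpressing human wild-type APP were seeded together with test compound (final DMSO 1%) and cultured for 21 h. Aβ1-40 in the supernatant was measured by HTRF after overnight incubation at 4 °C in the dark, reading fluorescence at 620 and 665 nm.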

Recombinant human BACE1 [4] = target: T3, Recombinant human BACE1; assay: Assay of BACE1 inhibitory activity: 384-well; assay type: biochemical; conditions: Assay format 384-well
Summary of the method: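 Recombinant human BACE1 was incubated 2 h at 25 °C with a biotin/Eu-cryptate-labelled peptide substrate and compound in DMSO. Streptavidin-XL665 in pH 7.0 phosphate buffer containing 0.8 mol/L KF was then added for 30 min at 25 °C for HTRF detection.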

T1 sequence (P10635 whole entry): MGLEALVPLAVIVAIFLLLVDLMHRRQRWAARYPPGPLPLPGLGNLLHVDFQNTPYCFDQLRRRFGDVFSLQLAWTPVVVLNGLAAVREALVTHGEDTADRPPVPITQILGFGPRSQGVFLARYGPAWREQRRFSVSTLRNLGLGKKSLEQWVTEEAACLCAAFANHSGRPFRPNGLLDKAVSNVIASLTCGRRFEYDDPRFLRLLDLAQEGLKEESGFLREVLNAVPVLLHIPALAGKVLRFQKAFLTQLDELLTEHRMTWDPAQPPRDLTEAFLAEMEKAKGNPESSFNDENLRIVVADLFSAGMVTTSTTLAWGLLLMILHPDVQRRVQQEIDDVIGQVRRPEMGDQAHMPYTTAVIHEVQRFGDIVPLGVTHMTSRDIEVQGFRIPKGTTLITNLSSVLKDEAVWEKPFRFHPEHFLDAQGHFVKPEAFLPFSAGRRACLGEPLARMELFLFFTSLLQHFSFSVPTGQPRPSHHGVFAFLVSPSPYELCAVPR
T3 sequence (P56817 46-501): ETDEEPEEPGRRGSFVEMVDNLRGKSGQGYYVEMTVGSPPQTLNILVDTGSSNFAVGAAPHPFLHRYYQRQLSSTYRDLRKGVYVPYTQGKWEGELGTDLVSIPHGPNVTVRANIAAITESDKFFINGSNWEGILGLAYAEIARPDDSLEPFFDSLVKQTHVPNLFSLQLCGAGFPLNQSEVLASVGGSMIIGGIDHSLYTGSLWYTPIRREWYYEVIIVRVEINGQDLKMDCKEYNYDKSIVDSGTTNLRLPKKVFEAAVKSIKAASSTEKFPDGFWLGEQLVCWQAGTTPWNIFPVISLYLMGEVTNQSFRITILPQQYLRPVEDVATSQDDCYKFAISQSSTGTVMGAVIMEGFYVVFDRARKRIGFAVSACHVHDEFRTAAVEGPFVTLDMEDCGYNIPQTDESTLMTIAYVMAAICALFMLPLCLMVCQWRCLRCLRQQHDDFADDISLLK
T2 sequence (P11712 whole entry): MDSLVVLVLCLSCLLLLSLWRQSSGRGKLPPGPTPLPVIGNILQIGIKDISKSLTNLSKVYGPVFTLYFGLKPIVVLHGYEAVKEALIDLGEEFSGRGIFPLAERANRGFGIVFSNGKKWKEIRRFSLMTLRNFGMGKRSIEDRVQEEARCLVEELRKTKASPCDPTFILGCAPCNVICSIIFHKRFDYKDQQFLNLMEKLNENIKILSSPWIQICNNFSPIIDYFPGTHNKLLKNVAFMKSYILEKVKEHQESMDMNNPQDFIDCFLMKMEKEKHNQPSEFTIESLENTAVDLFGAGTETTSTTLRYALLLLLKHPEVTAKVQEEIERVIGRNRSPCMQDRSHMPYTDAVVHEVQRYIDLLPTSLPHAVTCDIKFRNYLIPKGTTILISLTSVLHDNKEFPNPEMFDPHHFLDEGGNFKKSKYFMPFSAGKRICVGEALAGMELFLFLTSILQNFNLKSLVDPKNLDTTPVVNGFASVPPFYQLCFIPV

| Structure (SMILES) | IC50 (CYP2D6) [nM] | IC50 [1] [nM] | IC50 (CYP2C9) [nM] | IC50 (Recombinant human BACE1 [2]) [nM] | IC50 [3] [nM] | IC50 (Recombinant human BACE1 [4]) [nM] |
| --- | --- | --- | --- | --- | --- | --- |
| C[C@H]1SC(N)=N[C@](C)(c2nc(NC(=O)c3ccc(C#N)cn3)ccc2F)[C@H]1F [Compound I-1] | ≥ 20000 | 0.504 | ≥ 20000 | 13.3 | – | – |
| C[C@H]1SC(N)=N[C@](C)(c2nc(NC(=O)c3ccc(F)cn3)ccc2F)[C@H]1F [Compound I-2] | – | 3.73 | ≥ 10000 | 67.9 | – | – |
| C[C@H]1SC(N)=N[C@](C)(c2nc(NC(=O)c3cnc(OCF)cn3)ccc2F)[C@H]1F [Compound I-3] | – | 3.59 | ≥ 10000 | 61.3 | – | – |
| C[C@]1(c2nc(NC(=O)c3ccc(C#N)cn3)ccc2F)N=C(N)S[C@H](CF)[C@@H]1F [Compound I-4] | ≥ 20000 | 0.697 | ≥ 10000 | 11.5 | – | – |
| C[C@@]1(c2cc(NC(=O)c3ccc(C#N)cn3)ccc2F)C[C@@](C)(C(F)(F)F)OC(N)=N1 [Compound I-7] | – | 2.52 | – | 47.5 | – | – |
| COc1cnc(C(=O)Nc2ccc(F)c([C@@]3(C)N=C(N)S[C@H](C)[C@@H]3F)c2)cn1 [Compound I-8] | – | 0.26 | – | 11.8 | – | – |
| C[C@]1(c2cc(NC(=O)c3ccc(C#N)cn3)ccc2F)N=C(N)O[C@H](CF)[C@@H]1OCC(F)(F)F [Compound I-10] | ≥ 20000 | 0.708 | ≥ 20000 | 25.8 | – | – |
| C[C@]1(c2cc(NC(=O)c3ccc(F)cn3)ccc2F)N=C(N)O[C@H](CF)[C@@H]1OCC(F)(F)F [Compound I-11] | ≥ 10000 | 4.21 | ≥ 10000 | 102 | – | – |
| C[C@]1(c2cc(NC(=O)c3cnc(OCF)cn3)ccc2F)N=C(N)O[C@H](CF)[C@@H]1OCC(F)(F)F [Compound I-12] | ≥ 10000 | 1.88 | ≥ 20000 | 56.8 | – | – |
| C[C@H](F)[C@H]1OC(N)=N[C@](C)(c2cc(NC(=O)c3ccc(C#N)cn3)ccc2F)[C@H]1F [Compound I-13] | ≥ 20000 | 1.12 | ≥ 20000 | 32 | – | – |
| C[C@@H](F)[C@H]1OC(N)=N[C@](C)(c2cc(NC(=O)c3ccc(C#N)cn3)ccc2F)[C@H]1F [Compound I-15] | ≥ 20000 | 0.65 | ≥ 20000 | 15.2 | – | – |
| COc1cnc(C(=O)Nc2ccc(F)c([C@@]3(C)N=C(N)O[C@H]([C@H](C)F)[C@@H]3F)c2)cn1 [Compound I-17] | – | 3.23 | ≥ 20000 | 59.7 | – | – |
| CO[C@H]1[C@@H](CF)OC(N)=N[C@]1(C)c1cc(NC(=O)c2ccc(C#N)cn2)ccc1Cl [Compound I-18] | ≥ 20000 | 0.573 | ≥ 20000 | 18 | – | – |
| CO[C@H]1[C@@H](CF)OC(N)=N[C@]1(C)c1cc(NC(=O)c2cnc(OCF)cn2)ccc1Cl [Compound I-19] | – | 1.2 | ≥ 20000 | 46.5 | – | – |
| CO[C@H]1[C@@H](CF)OC(N)=N[C@]1(C)c1cc(NC(=O)c2ccc(F)cn2)ccc1Cl [Compound I-20] | ≥ 20000 | 4.19 | ≥ 20000 | 72.7 | – | – |
| CO[C@H]1[C@@H](CF)OC(N)=N[C@]1(C)c1cc(NC(=O)c2cnc(OCF)cn2)ccc1F [Compound I-24] | ≥ 10000 | 2.28 | ≥ 20000 | 97 | – | – |
| CO[C@H]1[C@@H](CF)OC(N)=N[C@]1(C)c1cc(NC(=O)c2ccc(F)cn2)ccc1F [Compound I-25] | ≥ 20000 | 4.31 | ≥ 20000 | 156 | – | – |

The remaining lines, values ahead:

| IC50 (CYP2D6) [nM] | IC50 [1] [nM] | IC50 (CYP2C9) [nM] | IC50 (Recombinant human BACE1 [2]) [nM] | IC50 [3] [nM] | IC50 (Recombinant human BACE1 [4]) [nM] | Structure (SMILES) |
| --- | --- | --- | --- | --- | --- | --- |
| ≥ 20000 | 6.7 | ≥ 20000 | 40.5 | – | – | C[C@@H]1[C@@H](C(F)(F)F)OC(N)=N[C@]1(C)c1cc(NC(=O)c2ccc(C#N)cn2)ccc1F [Compound I-27] |
| ≥ 20000 | 1.5 | ≥ 20000 | 22.6 | – | – | C[C@H]1[C@@H](C(F)(F)F)OC(N)=N[C@]1(C)c1cc(NC(=O)c2ccc(C#N)cn2)ccc1F [Compound I-28] |
| ≥ 20000 | 93.5 | ≥ 20000 | 1560 | – | – | C[C@H]1[C@H](C(F)(F)F)OC(N)=N[C@]1(C)c1cc(NC(=O)c2ccc(C#N)cn2)ccc1F [Compound I-29] |
| – | 2.33 | ≥ 20000 | 52.1 | – | – | C[C@H]1[C@@H](C(F)(F)F)OC(N)=N[C@]1(C)c1cc(NC(=O)c2cnc(OCF)cn2)ccc1F [Compound I-30] |
| ≥ 20000 | 0.668 | ≥ 20000 | 22.3 | – | – | C[C@H]1[C@@H](C(F)F)OC(N)=N[C@]1(C)c1cc(NC(=O)c2ccc(C#N)cn2)ccc1F [Compound I-31] |
| ≥ 10000 | 2.39 | ≥ 20000 | 43.6 | – | – | Cc1nc(C(=O)Nc2ccc(F)c([C@@]3(C)N=C(N)O[C@H](C(F)(F)F)[C@@H]3C)c2)co1 [Compound I-32] |
| – | 1.07 | ≥ 20000 | 49.2 | – | – | C[C@H]1[C@@H](C(F)F)OC(N)=N[C@]1(C)c1cc(NC(=O)c2cnc(OCF)cn2)ccc1F [Compound I-33] |
| ≥ 20000 | 0.391 | ≥ 20000 | 13.1 | – | – | C[C@]1(c2cc(NC(=O)c3ccc(C#N)cn3)ccc2F)N=C(N)O[C@H]2[C@@H]1OCC2(F)F [Compound I-35] |
| ≥ 20000 | – | ≥ 10000 | – | 1.8 | 21.2 | C[C@]1(c2cc(NC(=O)c3ccc(C#N)cn3)ccc2F)N=C(N)O[C@H](C2(F)CC2)[C@@H]1F [Compound I-96] |
| ≥ 20000 | – | ≥ 10000 | – | 2.1 | 17.3 | COc1cnc(C(=O)Nc2cccc([C@@]3(C)N=C(N)S[C@H](C)[C@@H]3F)c2)cn1 [Compound I-103] |
| ≥ 20000 | – | ≥ 10000 | – | 0.49 | 10.8 | C[C@H]1SC(N)=N[C@](C)(c2cccc(NC(=O)c3cnc(OCF)cn3)c2)[C@H]1F [Compound I-104] |
| ≥ 20000 | – | ≥ 20000 | – | 2.6 | 19.4 | C[C@H]1SC(N)=N[C@](C)(c2cccc(NC(=O)c3cnc(C(F)F)cn3)c2)[C@H]1F [Compound I-106] |

Source: patent US20170073337A1, “DIHYDROTHIAZINE AND DIHYDROOXAZINE DERIVATIVES HAVING BACE1 INHIBITORY ACTIVITY” (Shionogi & Co., Ltd., priority 2014, published 2017)
